Reference: PubChem BioAssay (NCI)
Several values for one entry are separate records, joined by “and”; a condition that tells them apart may be missing. Identical values can stand only once.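 Grown in 96-well plates, cells were treated for 48 hours with each compound at five concentrations. Insufficient inhibition: endpoint recorded as highest concentration tested. Abbreviation: GI50, concentration required for 50% inhibition of growth. TGI marks complete inhibition of growth.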

Assays:
Experiment in all cases: inhibition of tumour cell growth, NCI panel, 48 h
HCT-15 colon = system: HCT-15 colon
UACC-62 melanoma = system: UACC-62 melanoma
TK-10 renal = system: TK-10 renal
SNB-19 CNS = system: SNB-19 CNS
SK-OV-3 ovarian = system: SK-OV-3 ovarian
MALME-3M melanoma = system: MALME-3M melanoma
OVCAR-5 ovarian = system: OVCAR-5 ovarian
NCI-H460 lung = system: NCI-H460 lung
BT-549 breast = system: BT-549 breast
ACHN renal = system: ACHN renal
OVCAR-4 ovarian = system: OVCAR-4 ovarian
MCF7 breast = system: MCF7 breast
SN12C renal = system: SN12C renal
SK-MEL-28 melanoma = system: SK-MEL-28 melanoma
CCRF-CEM leukemia = system: CCRF-CEM leukemia
786-0 renal = system: 786-0 renal
OVCAR-3 ovarian = system: OVCAR-3 ovarian
U251 CNS = system: U251 CNS
SF-295 CNS = system: SF-295 CNS
RPMI-8226 leukemia = system: RPMI-8226 leukemia
COLO 205 colon = system: COLO 205 colon
EKVX NSCLC = system: EKVX NSCLC
HL-60(TB) leukemia = system: HL-60(TB) leukemia
OVCAR-8 ovarian = system: OVCAR-8 ovarian
T-47D breast = system: T-47D breast
NCI-H226 lung = system: NCI-H226 lung
UACC-257 melanoma = system: UACC-257 melanoma
SF-539 CNS = system: SF-539 CNS
SNB-75 CNS = system: SNB-75 CNS
PC-3 prostate = system: PC-3 prostate
MOLT-4 leukemia = system: MOLT-4 leukemia
HOP-92 NSCLC = system: HOP-92 NSCLC
NCI-H23 lung = system: NCI-H23 lung
UO-31 renal = system: UO-31 renal
HCT-116 colon = system: HCT-116 colon
CAKI-1 renal = system: CAKI-1 renal
A549 NSCLC = system: A549 NSCLC
HT29 colon = system: HT29 colon
M14 melanoma = system: M14 melanoma

For `COc1ccc(S(=O)(=O)N2CCN(C(=O)c3ccc(-c4ccccc4)cc3)CC2C(=O)NO)cc1` (stereo unspecified), the TGI (HCT-15 colon) was 12.5 µM and > 100 µM, the TGI (UACC-62 melanoma) was 12.5 µM and > 100 µM and the GI50 (TK-10 renal) was 1.83 µM and 12.1 µM. The TGI (TK-10 renal) was 7.33 µM and 58.5 µM, the TGI (SNB-19 CNS) was 12.5 µM and > 100 µM and the GI50 (SK-OV-3 ovarian) was over 100 µM. The TGI (SK-OV-3 ovarian) was over 100 µM, the GI50 (MALME-3M melanoma) was 2.25 µM and 17.3 µM and the TGI (OVCAR-5 ovarian) was 12.5 µM and > 100 µM. For the same molecule, the GI50 (NCI-H460 lung) was 3.62 µM and 29.3 µM, the TGI (NCI-H460 lung) was 12.5 µM and > 100 µM and the GI50 (BT-549 breast) was 2.48 µM. The TGI (BT-549 breast) was 6.69 µM, the GI50 (ACHN renal) was 3.28 µM and 20.6 µM and the TGI (ACHN renal) was 12.5 µM and 99.5 µM. The GI50 (OVCAR-4 ovarian) was 3.42 µM and 27.1 µM, the TGI (OVCAR-4 ovarian) was 12.5 µM and > 100 µM and the GI50 (MCF7 breast) was 0.714 µM. For the same molecule, the TGI (MCF7 breast) was 3.2 µM, the GI50 (SN12C renal) was 2.16 µM and 16.2 µM and the TGI (SK-MEL-28 melanoma) was 12.5 µM and > 100 µM. The GI50 (CCRF-CEM leukemia) was over 100 µM, the TGI (CCRF-CEM leukemia) was over 100 µM and the TGI (786-0 renal) was 12.4 µM and > 100 µM. The GI50 (OVCAR-3 ovarian) was 3.88 µM and 11.2 µM, the TGI (OVCAR-3 ovarian) was 11.2 µM and 47.6 µM and the TGI (U251 CNS) was 12.5 µM and > 100 µM. For the same molecule, the GI50 (SF-295 CNS) was 3.85 µM and 25.7 µM, the TGI (SF-295 CNS) was 12.5 µM and > 100 µM and the GI50 (RPMI-8226 leukemia) was over 100 µM. The TGI (RPMI-8226 leukemia) was over 100 µM, the TGI (COLO 205 colon) was 12.5 µM and > 100 µM and the GI50 (EKVX NSCLC) was 1.61 µM. For the same molecule, the TGI (EKVX NSCLC) was 7.02 µM, the GI50 (HL-60(TB) leukemia) was 16.8 µM and the TGI (HL-60(TB) leukemia) was 38.1 µM. The TGI (OVCAR-8 ovarian) was 12.5 µM and > 100 µM, the TGI (T-47D breast) was 12.5 µM and > 100 µM and the GI50 (NCI-H226 lung) was 5.2 µM and 20.7 µM. For the same molecule, the TGI (NCI-H226 lung) was 12.5 µM and 88.9 µM, the TGI (UACC-257 melanoma) was 12.5 µM and > 100 µM and the GI50 (SF-539 CNS) was 1.98 µM. It also gave a TGI (SF-539 CNS) of 4.22 µM, a GI50 (SNB-75 CNS) of 3.66 µM and a TGI (SNB-75 CNS) of 10.3 µM. For the same molecule, the GI50 (PC-3 prostate) was 2.01 µM and 17.9 µM, the GI50 (MOLT-4 leukemia) was 15.9 µM and the TGI (MOLT-4 leukemia) was 95.9 µM. The GI50 (HOP-92 NSCLC) was over 100 µM, the TGI (HOP-92 NSCLC) was over 100 µM and the TGI (NCI-H23 lung) was 12.5 µM and > 100 µM. For the same molecule, the TGI (UO-31 renal) was 10.4 µM and > 100 µM, the GI50 (HCT-116 colon) was 2.92 µM and 25.5 µM and the GI50 (CAKI-1 renal) was 2.99 µM and 21.9 µM. The TGI (CAKI-1 renal) was 12.5 µM and > 100 µM, the GI50 (A549 NSCLC) was 8.47 µM and 30.7 µM and the TGI (A549 NSCLC) was 12.5 µM and 82.2 µM. For the same molecule, the GI50 (HT29 colon) was 0.889 µM, the TGI (HT29 colon) was 12.5 µM and the GI50 (M14 melanoma) was 1.96 µM. It also gave a TGI (M14 melanoma) of 10 µM.
